Data published in ChEMBL document CHEMBL2016436, “X-ray crystallographic structure-based design of selective thienopyrazole inhibitors for interleukin-2-inducible tyrosine kinase” (Bioorg Med Chem Lett, 2012).

molecular target: Tyrosine-protein kinase Lck (Homo sapiens, UniProt P06239); assay: Inhibition of Lck autophosphorylation using [33P]ATP by scintillation counting
Sequence (P06239 whole entry): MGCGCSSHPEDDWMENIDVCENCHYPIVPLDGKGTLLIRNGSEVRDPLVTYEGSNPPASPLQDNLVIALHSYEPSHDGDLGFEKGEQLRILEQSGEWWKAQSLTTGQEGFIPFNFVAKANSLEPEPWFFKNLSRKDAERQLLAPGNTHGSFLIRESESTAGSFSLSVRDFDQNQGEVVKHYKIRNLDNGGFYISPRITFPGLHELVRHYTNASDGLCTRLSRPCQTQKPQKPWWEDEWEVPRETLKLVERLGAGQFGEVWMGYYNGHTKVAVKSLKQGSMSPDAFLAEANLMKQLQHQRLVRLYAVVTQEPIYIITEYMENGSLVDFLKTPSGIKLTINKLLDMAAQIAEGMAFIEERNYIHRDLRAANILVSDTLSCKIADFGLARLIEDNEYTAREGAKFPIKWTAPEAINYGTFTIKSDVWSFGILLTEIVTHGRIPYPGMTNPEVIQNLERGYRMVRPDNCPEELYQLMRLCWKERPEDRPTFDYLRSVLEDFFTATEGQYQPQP

| IC50 [nM] | SMILES |
| --- | --- |
| 3180 | CCC(O)(CC)c1ccc2c(-c3ccc(OC)cc3)c(-c3n[nH]c4ccsc34)[nH]c2c1 |
| 39.2 | CCC(O)(CC)c1ccc2cc(-c3n[nH]c4cc(C(F)F)sc34)[nH]c2c1 |
| 63.9 | CC(C)(O)c1ccc2cc(-c3n[nH]c4ccsc34)[nH]c2c1 |
| 203 | CCC(O)(CC)c1ccc2cc(-c3n[nH]c4cc(-c5ccccc5)sc34)[nH]c2c1 |
| 162 | CCC(O)(CC)c1cc(OCCN2CCOCC2)c2cc(-c3n[nH]c4ccsc34)[nH]c2c1 |
| 1100 | CCC(O)(CC)c1ccc2cc(-c3n[nH]c4ccsc34)[nH]c2c1 |

molecular target: Tyrosine-protein kinase SYK (Homo sapiens, UniProt P43405); assay: Inhibition of recombinant N-terminus His6 tagged Syk (343 to 635) autophosphorylation expressed in insect Sf9 cells using [33P]ATP by scintillation counting

| IC50 [nM] | SMILES |
| --- | --- |
| 939 | CCC(O)(CC)c1ccc2c(-c3ccc(OC)cc3)c(-c3n[nH]c4ccsc34)[nH]c2c1 |
| 2470 | CCC(O)(CC)c1ccc2cc(-c3n[nH]c4cc(-c5ccccc5)sc34)[nH]c2c1 |
| 287 | CCC(O)(CC)c1cc(OCCN2CCOCC2)c2cc(-c3n[nH]c4ccsc34)[nH]c2c1 |
| 186 | CCC(O)(CC)c1ccc2cc(-c3n[nH]c4ccsc34)[nH]c2c1 |

molecular target: T1, Tyrosine-protein kinase ITK/TSK (Homo sapiens, UniProt Q08881); assay: Inhibition of recombinant N-terminus His6 tagged Itk (357-620) autophosphorylation expressed in insect Sf9 cells using [33P]ATP by scintillation counting
T1 sequence (Q08881 whole entry): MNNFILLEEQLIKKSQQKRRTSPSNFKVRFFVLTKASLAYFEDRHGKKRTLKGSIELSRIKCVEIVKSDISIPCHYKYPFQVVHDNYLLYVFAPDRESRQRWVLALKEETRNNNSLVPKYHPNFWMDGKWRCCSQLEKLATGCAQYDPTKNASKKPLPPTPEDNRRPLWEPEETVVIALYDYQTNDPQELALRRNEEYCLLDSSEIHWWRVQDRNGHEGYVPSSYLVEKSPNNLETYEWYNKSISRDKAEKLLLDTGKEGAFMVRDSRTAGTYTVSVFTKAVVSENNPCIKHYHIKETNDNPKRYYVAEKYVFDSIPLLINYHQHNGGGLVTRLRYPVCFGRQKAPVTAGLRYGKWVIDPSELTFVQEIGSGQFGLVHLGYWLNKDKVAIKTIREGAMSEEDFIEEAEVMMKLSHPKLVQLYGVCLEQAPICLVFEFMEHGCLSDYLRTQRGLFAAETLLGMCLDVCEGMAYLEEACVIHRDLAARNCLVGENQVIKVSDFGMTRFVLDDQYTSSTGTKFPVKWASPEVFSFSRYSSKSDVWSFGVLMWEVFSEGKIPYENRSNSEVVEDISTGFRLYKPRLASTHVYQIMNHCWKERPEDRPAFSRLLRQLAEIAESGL

| IC50 [nM] | SMILES |
| --- | --- |
| 1.9 | CC(C)(O)c1ccc2cc(-c3n[nH]c4ccsc34)[nH]c2c1 |
| 200 | Oc1ccc2nc(-c3n[nH]c4ccccc34)[nH]c2c1 |

molecular target: T2, Tyrosine-protein kinase TXK (Homo sapiens, UniProt P42681); assay: Inhibition of Txk autophosphorylation using [33P]ATP by scintillation counting
T2 sequence (P42681 whole entry): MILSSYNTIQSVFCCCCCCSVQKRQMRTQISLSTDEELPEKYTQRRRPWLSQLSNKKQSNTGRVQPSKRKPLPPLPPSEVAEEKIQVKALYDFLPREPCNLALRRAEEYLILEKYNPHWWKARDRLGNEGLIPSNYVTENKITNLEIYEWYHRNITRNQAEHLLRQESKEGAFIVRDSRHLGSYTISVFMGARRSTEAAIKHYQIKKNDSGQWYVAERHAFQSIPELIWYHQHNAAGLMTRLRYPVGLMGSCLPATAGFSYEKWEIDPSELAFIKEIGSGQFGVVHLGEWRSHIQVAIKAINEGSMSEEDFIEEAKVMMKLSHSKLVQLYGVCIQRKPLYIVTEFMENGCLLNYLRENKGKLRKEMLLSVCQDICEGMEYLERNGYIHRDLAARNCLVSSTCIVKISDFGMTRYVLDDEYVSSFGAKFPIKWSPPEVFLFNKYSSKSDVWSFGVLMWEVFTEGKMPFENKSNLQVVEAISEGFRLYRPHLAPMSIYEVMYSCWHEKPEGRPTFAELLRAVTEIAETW

| IC50 [nM] | SMILES |
| --- | --- |
| 241 | CCC(O)(CC)c1ccc2c(-c3ccc(OC)cc3)c(-c3n[nH]c4ccsc34)[nH]c2c1 |
| 77.5 | CCC(O)(CC)c1ccc2cc(-c3n[nH]c4cc(C(F)F)sc34)[nH]c2c1 |
| 73.8 | CC(C)(O)c1ccc2cc(-c3n[nH]c4ccsc34)[nH]c2c1 |
| 441 | CCC(O)(CC)c1ccc2cc(-c3n[nH]c4cc(-c5ccccc5)sc34)[nH]c2c1 |
| 55.7 | CCC(O)(CC)c1cc(OCCN2CCOCC2)c2cc(-c3n[nH]c4ccsc34)[nH]c2c1 |
| 66.5 | CCC(O)(CC)c1ccc2cc(-c3n[nH]c4ccsc34)[nH]c2c1 |
